In the oligonucleotide strings, read from the 5' end, every base follows the letter of its sugar. An asterisk marks phosphorothioate; unmarked linkages are phosphodiester. Other units and linkages are bracketed, terminal groups are in braces. A string of capitals states the bases alone. e = 2'-O-(2-methoxyethyl) (MOE); [5mC] = 5-methylcytosine; d = 2'-deoxy (DNA)
System: human apolipoprotein B mRNA
Test: Inhibition of human apolipoprotein B mRNA levels in HepG2 cells, quantitative real-time PCR
Assay type: cell-based
Conditions: for % INHIB (inhibition of human apolipoprotein B mRNA levels): HepG2 cells treated with 150 nM of compound, quantitative real-time PCR; for % INHIB (inhibition of human apolipoprotein B mRNA levels) / % INHIB: averages from two experiments; for % INHIB: Table 12; for % INHIB / % inhibition 37 nM / % inhibition 75 nM / % inhibition 150 nM / % inhibition 300 nM: HepG2 cells; for % INHIB / % inhibition 150 nM: 150 nM; for % inhibition 37 nM / % inhibition 75 nM / % inhibition 150 nM / % inhibition 300 nM: Table 19 dose response, normalized to untreated control
Outline: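 Apolipoprotein B transcript was quantified by one-step TaqMan RT-PCR, normalized to GAPDH or RiboGreen RNA, and expressed as percent inhibition against an untreated-sample standard curve. HepG2 cells were harvested 16-24 h after oligonucleotide exposure, which was delivered with 3.75 μg/mL Lipofectin over 4-7 h at 80% confluency.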

Substance	% INHIB (inhibition of human apolipoprotein B mRNA levels) [%]	other results
281635 (antisense eA*eT*eA*e[5mC]*eA*d[5mC]*dT*dG*d[5mC]*dA*dA*d[5mC]*dT*dG*dT*eG*eG*e[5mC]*e[5mC]*eT) [compound 281635]	89	
281636 (antisense eG*e[5mC]*eA*eA*eG*dA*dG*dT*d[5mC]*d[5mC]*dA*d[5mC]*d[5mC]*dA*dA*eT*e[5mC]*eA*eG*eA) [compound 281636]	68	
281637 (antisense eA*eG*eA*eG*e[5mC]*d[5mC]*dT*dG*dA*dA*dG*dA*d[5mC]*dT*dG*eA*e[5mC]*eT*eT*e[5mC]) [compound 281637]	74	
281638 (antisense eT*e[5mC]*e[5mC]*e[5mC]*eT*d[5mC]*dA*dT*d[5mC]*dT*dG*dA*dG*dA*dA*eT*e[5mC]*eT*eG*eG) [compound 281638]	66	
281639 (antisense eG*eA*e[5mC]*eG*eT*d[5mC]*dA*dG*dA*dA*d[5mC]*d[5mC]*dT*dA*dT*eG*eA*eT*eG*eG) [compound 281639]		% INHIB: 38%
281640 (e[5mC]*eA*eG*eT*eG*d[5mC]*dA*dT*d[5mC]*dA*dA*dT*dG*dA*d[5mC]*eA*eG*eA*eT*eG; antisense) [compound 281640]	87	
281641 (e[5mC]*e[5mC]*eG*eA*eA*d[5mC]*d[5mC]*d[5mC]*dT*dT*dG*dA*d[5mC]*dA*dT*e[5mC]*eT*e[5mC]*e[5mC]*eT; antisense) [compound 281641]	72	
281642 (eG*e[5mC]*e[5mC]*eT*e[5mC]*dA*d[5mC]*dT*dA*dG*d[5mC]*dA*dA*dT*dA*eG*eT*eT*e[5mC]*e[5mC]; antisense) [compound 281642]	59	
281643 (eG*eA*e[5mC]*eA*eT*dT*dT*dG*d[5mC]*d[5mC]*dA*dT*dG*dG*dA*eG*eA*eG*eA*eG; antisense) [compound 281643]	61	
281644 (e[5mC]*eT*eG*eT*e[5mC]*dT*d[5mC]*d[5mC]*dT*dA*d[5mC]*d[5mC]*dA*dA*dT*eG*e[5mC]*eT*eG*eG; antisense) [compound 281644]	26	
281645 (eT*e[5mC]*eT*eG*e[5mC]*dA*d[5mC]*dT*dG*dA*dA*dG*dT*d[5mC]*dA*e[5mC]*eG*eG*eT*eG; antisense) [compound 281645]	78	
281646 (eT*e[5mC]*e[5mC]*e[5mC]*eG*dG*dA*d[5mC]*d[5mC]*d[5mC]*dT*d[5mC]*dA*dA*d[5mC]*eT*e[5mC]*eA*eG*eT; antisense) [compound 281646]	76	
281647 (eT*eG*eA*eG*eT*dG*dA*dG*dT*d[5mC]*dA*dA*dT*d[5mC]*dA*eG*e[5mC]*eT*eT*e[5mC]) [compound 281647]		% INHIB: 73%
281648 (eG*e[5mC]*eA*eG*eG*dT*d[5mC]*d[5mC]*dA*dG*dT*dT*d[5mC]*dA*dT*eA*eT*eG*eT*eG; antisense) [compound 281648]	81	
281649 (eG*e[5mC]*e[5mC]*eA*eT*d[5mC]*d[5mC]*dT*dT*d[5mC]*dT*dG*dA*dG*dT*eT*e[5mC]*eA*eG*eA; antisense) [compound 281649]	76	
301013 (e[5mC]*e[5mC]*e[5mC]*e[5mC]*eG*d[5mC]*dA*dG*dG*dT*d[5mC]*d[5mC]*d[5mC]*dG*dG*eT*eG*eG*eG*eA; antisense) [compound 301013]	82	
301015 (e[5mC]*eA*eA*e[5mC]*e[5mC]*dG*dA*dG*dA*dA*dG*dG*dG*d[5mC]*dA*e[5mC]*eT*e[5mC]*eA*eG; antisense) [compound 301015]	53	
301016 (e[5mC]*e[5mC]*eT*e[5mC]*eA*dG*d[5mC]*dG*dG*d[5mC]*dA*dG*d[5mC]*dA*dA*e[5mC]*e[5mC]*eG*eA*eG; antisense) [compound 301016]	62	
301017 (eT*e[5mC]*e[5mC]*eT*e[5mC]*dA*dG*d[5mC]*dG*dG*d[5mC]*dA*dG*d[5mC]*dA*eA*e[5mC]*e[5mC]*eG*eA; antisense) [compound 301017]	47	
301018 (e[5mC]*eT*e[5mC]*e[5mC]*eT*d[5mC]*dA*dG*d[5mC]*dG*dG*d[5mC]*dA*dG*d[5mC]*eA*eA*e[5mC]*e[5mC]*eG; antisense) [compound 301018]	45	
301019 (eG*eG*e[5mC]*eT*e[5mC]*d[5mC]*dT*d[5mC]*dA*dG*d[5mC]*dG*dG*d[5mC]*dA*eG*e[5mC]*eA*eA*e[5mC]; antisense) [compound 301019]	70	

Substance	% INHIB (inhibition of human apolipoprotein B mRNA levels) [%]	other results
301020 (eG*eG*e[5mC]*eG*eG*dG*d[5mC]*dT*d[5mC]*d[5mC]*dT*d[5mC]*dA*dG*d[5mC]*eG*eG*e[5mC]*eA*eG; antisense) [compound 301020]	85	
301022 (eG*eG*e[5mC]*eG*eG*dG*dT*d[5mC]*d[5mC]*dA*dT*d[5mC]*dG*d[5mC]*d[5mC]*eA*eG*e[5mC]*eT*eG; antisense) [compound 301022]	69	
301023 (eT*eA*eG*eA*eG*dG*dA*dT*dG*dA*dT*dA*dG*dT*dA*eA*eG*eT*eT*e[5mC]; antisense) [compound 301023]	69	
301024 (eA*eA*eA*eT*eG*dA*dA*dG*dA*dT*dT*dT*d[5mC]*dT*dT*eT*eT*eA*eA*eA; antisense) [compound 301024]	5	
301025 (eT*eA*eT*eG*eT*dG*dA*dA*dA*dG*dT*dT*d[5mC]*dA*dA*eT*eT*eG*eG*eA; antisense) [compound 301025]	76	
301026 (eA*eT*eA*eT*eA*dG*dG*d[5mC]*dA*dG*dT*dT*dT*dG*dA*eA*eT*eT*eT*eT; antisense) [compound 301026]	57	
301032 (e[5mC]*eT*eA*e[5mC]*eT*dG*d[5mC]*dA*dA*dG*dG*d[5mC]*dT*dG*dG*e[5mC]*eT*e[5mC]*eA*e[5mC]; antisense) [compound 301032]	63	
301033 (eA*e[5mC]*eT*eG*e[5mC]*d[5mC]*dT*dA*d[5mC]*dT*dG*d[5mC]*dA*dA*dG*eG*e[5mC]*eT*eG*eG; antisense) [compound 301033]	77	
301034 (eT*eG*e[5mC]*eT*eT*dA*dT*dA*dG*dT*d[5mC]*dT*dA*d[5mC]*dT*eG*e[5mC]*e[5mC]*eT*eA; antisense) [compound 301034]	88	% inhibition 37 nM: 73%; % inhibition 75 nM: 87%; % inhibition 150 nM: 93%; % inhibition 300 nM: 97%
301035 (eT*eT*e[5mC]*eT*eG*d[5mC]*dT*dT*dA*dT*dA*dG*dT*d[5mC]*dT*eA*e[5mC]*eT*eG*e[5mC]; antisense) [compound 301035]	82	
301036 (eT*eT*eT*eG*eG*dT*dG*d[5mC]*dA*dG*dG*dT*d[5mC]*d[5mC]*dA*eG*eT*eT*e[5mC]*eA; antisense) [compound 301036]	88	% inhibition 37 nM: 67%; % inhibition 75 nM: 83%; % inhibition 150 nM: 92%; % inhibition 300 nM: 95%
301039 (eT*eG*eG*eT*eG*d[5mC]*d[5mC]*dA*dG*d[5mC]*dT*dT*dT*dG*dG*eT*eG*e[5mC]*eA*eG; antisense) [compound 301039]	73	
301040 (eG*e[5mC]*e[5mC]*e[5mC]*eT*dG*dG*dT*dG*d[5mC]*d[5mC]*dA*dG*d[5mC]*dT*eT*eT*eG*eG*eT; antisense) [compound 301040]	74	
301041 (eG*eA*eG*eT*eT*d[5mC]*dA*dG*dA*dG*dA*d[5mC]*d[5mC]*dT*dT*e[5mC]*e[5mC]*eG*eA*eG; antisense) [compound 301041]	85	
301042 (eA*eA*eA*eT*eG*d[5mC]*d[5mC]*dA*dT*d[5mC]*d[5mC]*dT*dT*d[5mC]*dT*eG*eA*eG*eT*eT; antisense) [compound 301042]	81	
301043 (eA*eA*eA*eA*eA*dT*dG*d[5mC]*d[5mC]*dA*dT*d[5mC]*d[5mC]*dT*dT*e[5mC]*eT*eG*eA*eG; antisense) [compound 301043]	81	
301044 (eA*eA*eA*eA*eT*dA*dA*d[5mC]*dT*d[5mC]*dA*dG*dA*dT*d[5mC]*e[5mC]*eT*eG*eA*eT; antisense) [compound 301044]	76	
301046 (eA*eG*eT*eT*eT*dA*dG*d[5mC]*dA*dA*dA*dA*dT*dA*dA*e[5mC]*eT*e[5mC]*eA*eG; antisense) [compound 301046]	80	
301047 (eT*e[5mC]*e[5mC]*e[5mC]*e[5mC]*d[5mC]*dA*dA*dG*dT*dT*dT*dA*dG*d[5mC]*eA*eA*eA*eA*eT; antisense) [compound 301047]	56	
301048 (eT*eT*e[5mC]*e[5mC]*eT*d[5mC]*d[5mC]*dT*d[5mC]*d[5mC]*d[5mC]*d[5mC]*d[5mC]*dA*dA*eG*eT*eT*eT*eA; antisense) [compound 301048]	67	

From patent US7803930B2, “Antisense modulation of apolipoprotein B-expression” (Isis Pharmaceuticals, Inc., priority 2002, dated 2010)
